The NIST ThermoML archive (doi:10.1016/j.jct.2017.07.008)
Numbers after ± are expanded uncertainties.

Assay: refractive index (Na D-line) (dimensionless)
Conditions: 100 kPa, Liquid, Standard Abbe refractometry

SMILES	refractive index (283.15 K)	refractive index (285.65 K)	refractive index (288.15 K)	refractive index (290.65 K)	refractive index (293.15 K)	refractive index (295.65 K)	refractive index (298.15 K)	refractive index (300.65 K)	refractive index (303.15 K)	refractive index (305.65 K)	refractive index (308.15 K)	refractive index (310.65 K)	refractive index (313.15 K)	refractive index (315.65 K)	refractive index (318.15 K)	refractive index (320.65 K)	refractive index (323.15 K)	refractive index (325.65 K)	refractive index (328.15 K)	refractive index (330.65 K)	other results
OCc1cccs1 [2-thiophenemethanol]	1.5713 ± 0.0004	1.5701 ± 0.0004	1.569 ± 0.0004	1.5679 ± 0.0004	1.5668 ± 0.0004	1.5657 ± 0.0004	1.5646 ± 0.0004	1.5635 ± 0.0004	1.5624 ± 0.0004	1.5613 ± 0.0004	1.5602 ± 0.0004	1.559 ± 0.0004	1.5579 ± 0.0004	1.5568 ± 0.0004	1.5557 ± 0.0004	1.5546 ± 0.0004	1.5535 ± 0.0004	1.5524 ± 0.0004	1.5513 ± 0.0004	1.5502 ± 0.0004	refractive index (333.15 K): 1.5491 ± 0.0004; refractive index (335.65 K): 1.548 ± 0.0004; refractive index (338.15 K): 1.5468 ± 0.0004
O=Cc1cccs1 [2-thiophenealdehyde]	1.5924 ± 0.0004	1.5912 ± 0.0004	1.59 ± 0.0004	1.5888 ± 0.0004	1.5876 ± 0.0004	1.5864 ± 0.0004	1.5853 ± 0.0004	1.5841 ± 0.0004	1.5829 ± 0.0004	1.5817 ± 0.0004	1.5805 ± 0.0004	1.5793 ± 0.0004	1.5781 ± 0.0004	1.5769 ± 0.0004	1.5757 ± 0.0004	1.5745 ± 0.0004	1.5733 ± 0.0004	1.5721 ± 0.0004	1.5709 ± 0.0004	1.5697 ± 0.0004	refractive index (333.15 K): 1.5685 ± 0.0004; refractive index (335.65 K): 1.5674 ± 0.0004; refractive index (338.15 K): 1.5662 ± 0.0004
